Data set [1] can be described thus: Shakability of the composition. Format: physicochemical. From the text: ‘Shakability’ means that the composition contains some or sufficient flow to allow the composition to be mixed or remixed on shaking. That is, it has fluid or semi fluid properties. A breakable foam is that is thermally stable, yet breaks under sheer force.
‘Shakability’ means that the composition contains some or sufficient flow to allow the composition to be mixed or remixed on shaking. That is, it has fluid or semi fluid properties. In some very limited cases it may still be possible to have a foamable composition which is flowable but not apparently shakable.

Data set [2] can be described thus: Foam appearance (color, odor, form). It counts as physicochemical. The arrangement: key to ODOR: No odor (N.O.); key to COLOR: white (W).
The nature of data set [3]: Solubility of the active agent in solvents/carriers. The following applies: in the polyol and DMI mixture (Example 19 composition). It counts as physicochemical.
A short description of data set [4]: Foam quality grading upon release from the aerosol container. The following applies: active agent in stock of PEG-400 97.5, hydroxypropyl cellulose 0.5, steareth 2 2.0 (first Example 29). It counts as physicochemical. From the text: Foam quality can be graded as follows:
Grade FG (fairly good): a moderate amount of creaminess noticeable, bubble structure is noticeable; upon spreading on the skin the product dulls rapidly and becomes somewhat lower in apparent viscosity.
Grade F (fair): very little creaminess noticeable, larger bubble structure than a “fairly good” foam, upon spreading on the skin it becomes thin in appearance and watery.
Grade P (poor): no creaminess noticeable, large bubble structure, and when spread on the skin it becomes very thin and watery in appearance.
Grade VP (very poor): dry foam, large very dull bubbles, difficult to spread on the skin.

The conditions of data set [5]: cited from earlier work.
Another data set relates to candida albicans. The data set is described as follows: Comparative in-vitro antifungal activity (Petri dish spreading). Format: cell-based. The source says: An exemplary case for the inclusion of an anti-infective agent in a hygroscopic composition is provided herewith. […] Thus, combining an antifungal agent in a hygroscopic composition results in an expansion of the spectrum of infective strains that can benefit form the therapy, and furthermore, in can render an improved effect of such a composition on mixed infections or in infections that are not accurately diagnosed.
A comparative in-vitro study was set to evaluate the effect of Composition A, consisting of 2% terbinafine, 95.3% gr. polyethylene glycol, 0.5% hydroxypropyl cellulose and 2.2% steareth-2, in comparison with Composition B (an oil in water emulsion containing 2% terbinafine) and Composition C a commercial 1% bifonazole cream.
Three fungal strains (microsporum canis, trichophyton mentagrophytes and trichophyton rubrum) and one yeast (candida albicans) were seeded in the center of a Petri dish, and then, were surrounded by a film containing each of the compositions, using a swab, soaked with each of the compositions. The proliferation and spreading of the microorganisms was followed up for 14 day by visual and photographic observations.

[6] abbreviates: active agent in stock of PEG-400 97.5, hydroxypropyl cellulose 0.5, steareth 2 2.0 (first Example 29).
Where [7] appears, read: active agent in stock of propylene glycol 46, glycerin 33, dimethyl isosorbide 15, stearyl alcohol, hydroxypropyl cellulose, laureth-4, GMS/PEG 100 stearate (Example 30).
The mark [8] stands for this setting: active agent in stock of propylene glycol 91, stearyl alcohol 2, Klucel EF 2, laureth-4 2, glyceryl monostearate/PEG 100 stearate 3 (second Example 29).

Read-outs that look alike come from different tables or passages of the source.

Consider `Nc1nc2c(ncn2COCCO)c(=O)[nH]1` [Acyclovir], for which the SHAKABILITY entry in data set [1] (setting [6]), in data set [1] (setting [7]) and in data set [1] (setting [8]) was “Yes” each time. Also, the COLOR result in data set [2] (setting [6]) was “W”; in data set [2] (setting [7]), “O.W”; in data set [2] (setting [8]), “O.W”. In addition, the ODOR result in data set [2] (setting [6]), in data set [2] (setting [7]) and in data set [2] (setting [8]) was “N.O” in each case. In data set [3], the solubility entry is reported as “not fully soluble”.

Take `O=C(O)Cc1ccccc1Nc1c(Cl)cccc1Cl` [Diclofenac sodium]: the QUALITY result in data set [4] is “G+”. For the same compound, the SHAKABILITY entry in data set [1] (setting [6]), in data set [1] (setting [7]) and in data set [1] (setting [8]) was “Yes” in each case. Also, the COLOR result in data set [2] (setting [6]), in data set [2] (setting [7]) and in data set [2] (setting [8]) was “W” throughout. The ODOR entry in data set [2] (setting [6]), in data set [2] (setting [7]) and in data set [2] (setting [8]) was “N.O” in each case.

Take `C/C(=C\C(=O)OCCCCCCCCC(=O)O)C[C@@H]1OC[C@H](C[C@@H]2O[C@H]2[C@@H](C)[C@H](C)O)[C@@H](O)[C@H]1O` [Mupirocin]: the SHAKABILITY entry in data set [1] (setting [6]) and in data set [1] (setting [8]) was “Yes” in each case. Further, the COLOR result in data set [2] (setting [6]) and in data set [2] (setting [8]) was “W” in each case. Moreover, the ODOR entry in data set [2] (setting [6]) and in data set [2] (setting [8]) was “N.O” in each case. The solubility entry in data set [5] (in mineral oil and other commonly used ointment solvents) is on record as “practically insoluble”.

Regarding `CN(C/C=C/C#CC(C)(C)C)Cc1cccc2ccccc12` [terbinafine], the “inhibition of the spreading of candida albicans” value is recorded as “not effective” in the data set with candida albicans (control preparation, same concentration in an emulsion base) and “effectively inhibited the spreading” in the data set with candida albicans (dissolved in a hygroscopic carrier). Also, in data set [5] (in common formulation excipients), the solubility result is listed as “hard to dissolve”.
